# Measurements from patent US5084082A, “Soybean plants with dominant selectable trait for herbicide resistance” (priority 1990, dated 1992).
# Assays:
# [1] = tested on: Acetolactate synthase (ALS) from leaves of W19; assay: Test D ALS assay with chlorsulfuron; type: biochemical, soybean
# Method: (§1) Acetolactate synthase (ALS) was extracted from leaves of soybean plants growing vegetatively. The leaves were homogenized in 4 volumes of buffer containing 100 mM hepes (pH 7.5), 1 mM sodium pyruvate, 0.5 mM magnesium chloride, 0.5 mM thiamine pyrophosphate, […], 10% glycerol, 5% PVPP, and 0.2% mercaptoethanol. The homogenate was filtered through cheese cloth and centrifuged at 20,000 g for 20 min. ALS was precipitated from the supernatant with ammonium sulfate. The enzyme was collected between 20 and 60% saturation by centrifugation at 20,000 g for 20 min. The pellet was resuspended in buffer containing 100 mM Hepes, 1 mM sodium pyruvate, and 0.5 mM magnesium chloride, and desalted on PD-10 columns (Pharmacia) equilibrated with the same buffer. ALS assays were carried out in a final volume of 0.5 mL at 30° C. The final reaction mixture contained 100 mM Hepes (pH 7.5), 1 mM magnesium chloride, 60 mM sodium pyruvate, 0.4 mM thiaminepyrophosphate, […], and various concentrations of chlorsulfuron. The assays were initiated with the addition of enzyme ([…]) and terminated with the addition of […] of 6N sulfuric acid. The acidified reaction mixture was heated to 60° C. for 15 min, after which 0.5 mL of 0.5% (W/V) creatine and 0.5 mL of 5% (W/V) napthol (freshly prepared in 2.5 N sodium hydroxide) were added. The reaction mixtures were heated for an additional 15 min at 60° C., and the absorbance was read at 525 nm. Data are expressed in terms of % control (minus Compound 1) activity and are the average of two replications. Fisher's least significant difference (LSD) value (at the 95% level of confidence) was calculated for each Compound 1 concentration to determine the significance of genotype mean differences.
# [2] = tested on: Acetolactate synthase (ALS) from leaves of W20; assay: Test D ALS assay with chlorsulfuron; type: biochemical, soybean
# Method: as §1
# [3] = tested on: Acetolactate synthase (ALS) from leaves of W23; assay: Test D ALS assay with chlorsulfuron; type: biochemical, soybean
# Method: as §1
# [4] = tested on: Acetolactate synthase (ALS) from leaves of W28; assay: Test D ALS assay with chlorsulfuron; type: biochemical, soybean
# Method: as §1
# [5] = tested on: Acetolactate synthase (ALS) from leaves of Williams 82; assay: Test D ALS assay with chlorsulfuron; type: biochemical, soybean
# Method: as §1
# [6] = tested on: mutants that have heritable sulfonylurea tolerance; assay: Pilot studies, threshold concentration in hydroponic system; type: in vivo, soybean; details: sulfonylurea tolerant mutants, 100 mg/L used to irrigate the hydroponic system
# Excerpt: (§2) The same sulfonylurea concentrations would select only highly resistant plants.
# wild type soybeans = assay: as above; type: in vivo, soybean; details: 100 mg/L used to irrigate the hydroponic system
# Excerpt: as §2
# ALS of W20 = assay: In vitro ALS activity of leaf tissue in the presence of Compounds 8 and 9; type: biochemical, soybean; details: W20, 100 ppb
# Excerpt: (§3) At approximately 1 month after transplantation, some of the selections appeared much healthier than others. For example, W4-4, W4-6, W6-1, W6-2, W6-4, W23-10, and W23-11 recovered very well from the seed soak treatment with Compound 8. These plants were suspected of having a higher level of ALS resistance to Compound 8 than did the parental material from which they were derived. The applicant was also interested to see if any of these selections were cross resistant to an imidazolinone herbicide such as Compound 9. To test this hypothesis, leaf tissue of the one-month-old M2 plants was sampled and assayed in vitro for ALS activity in the presence of Compound 8 and Compound 9. The ALS assay procedure was essentially identical to the previously described ALS assay except that the herbicide concentrations tested were 100 ppb Compound 8 and 10 ppm Compound 9. Williams and mutant W20 soybean plants were also assayed as control genotypes for comparison. Williams contains no genes conferring the ALS-based sulfonylurea resistance while W20 is homozygous for a single mutation conferring ALS-based sulfonylurea resistance.
# as §1
# ALS of W23-10 = assay: as above; type: biochemical, soybean; details: W23-10, 100 ppb
# Excerpt: as §3, §1
# ALS of W23-11 = assay: as above; type: biochemical, soybean; details: W23-11, 100 ppb
# Excerpt: as §3, §1
# ALS of W4-4 = assay: as above; type: biochemical, soybean; details: W4-4, 100 ppb
# Excerpt: as §3, §1
# ALS of W4-5 = assay: as above; type: biochemical, soybean; details: W4-5, 100 ppb
# Excerpt: as §3, §1
# ALS of W4-6 = assay: as above; type: biochemical, soybean; details: W4-6, 100 ppb
# Excerpt: as §3, §1
# ALS of W6-1 = assay: as above; type: biochemical, soybean; details: W6-1, 100 ppb
# Excerpt: as §3, §1
# ALS of W6-2 = assay: as above; type: biochemical, soybean; details: W6-2, 100 ppb
# Excerpt: as §3, §1
# ALS of W6-4 = assay: as above; type: biochemical, soybean; details: W6-4, 100 ppb
# Excerpt: as §3, §1
# ALS of Williams = assay: as above; type: biochemical, soybean; details: 100 ppb
# Excerpt: as §3, §1
# W20 seedlings = assay: Large-scale hydroponic screening pilot with Compound 8; type: in vivo, soybean; details: 300 ppb used to irrigate the hydroponic system
# Excerpt: The first screening protocol used was identical to the "Large-Scale Hydroponic Screening System" described previously except for the fact that 300 ppb of Compound 8 was used as the selective agent instead of 100 ppb of Compound 1. […] Rare seedlings developing true leaves became very obvious against the background of inhibited seedlings.
compound,measurement,setting,value
"COc1nc(C)nc(NC(=O)NS(=O)(=O)c2ccccc2Cl)n1 [Compound 1, 2-chloro-N-[[(4-methoxy-6-methyl-1,3,5-triazin-2-yl)amino]carbonyl]benzenesulfonamide]",uninhibited ALS activity (% of control),"[1]; W19, chlorsulfuron 10 mg/l-l",60.7 % of control
same,uninhibited ALS activity (% of control),"[1]; W19, chlorsulfuron 20 mg/l-l",54.5 % of control
same,uninhibited ALS activity (% of control),"[1]; W19, chlorsulfuron 50 mg/l-l",48.7 % of control
same,uninhibited ALS activity (% of control),"[1]; W19, chlorsulfuron 100 mg/l-l",45.7 % of control
same,uninhibited ALS activity (% of control),"[1]; W19, chlorsulfuron 200 mg/l-l",40.8 % of control
same,uninhibited ALS activity (% of control),"[2]; W20, chlorsulfuron 10 mg/l-l",50.6 % of control
same,uninhibited ALS activity (% of control),"[2]; W20, chlorsulfuron 20 mg/l-l",35.2 % of control
same,uninhibited ALS activity (% of control),"[2]; W20, chlorsulfuron 50 mg/l-l",31.1 % of control
same,uninhibited ALS activity (% of control),"[2]; W20, chlorsulfuron 100 mg/l-l",20.8 % of control
same,uninhibited ALS activity (% of control),"[2]; W20, chlorsulfuron 200 mg/l-l",19.0 % of control
same,uninhibited ALS activity (% of control),"[3]; W23, chlorsulfuron 10 mg/l-l",55.3 % of control
same,uninhibited ALS activity (% of control),"[3]; W23, chlorsulfuron 20 mg/l-l",46.3 % of control
same,uninhibited ALS activity (% of control),"[3]; W23, chlorsulfuron 50 mg/l-l",38.9 % of control
same,uninhibited ALS activity (% of control),"[3]; W23, chlorsulfuron 100 mg/l-l",37.4 % of control
same,uninhibited ALS activity (% of control),"[3]; W23, chlorsulfuron 200 mg/l-l",34.0 % of control
same,uninhibited ALS activity (% of control),"[4]; W28, chlorsulfuron 10 mg/l-l",54.6 % of control
same,uninhibited ALS activity (% of control),"[4]; W28, chlorsulfuron 20 mg/l-l",46.1 % of control
same,uninhibited ALS activity (% of control),"[4]; W28, chlorsulfuron 50 mg/l-l",42.8 % of control
same,uninhibited ALS activity (% of control),"[4]; W28, chlorsulfuron 100 mg/l-l",36.4 % of control
same,uninhibited ALS activity (% of control),"[4]; W28, chlorsulfuron 200 mg/l-l",34.3 % of control
same,uninhibited ALS activity (% of control),"[5]; WM 82, chlorsulfuron 10 mg/l-l",41.1 % of control
same,uninhibited ALS activity (% of control),"[5]; WM 82, chlorsulfuron 20 mg/l-l",26.3 % of control
same,uninhibited ALS activity (% of control),"[5]; WM 82, chlorsulfuron 50 mg/l-l",15.0 % of control
same,uninhibited ALS activity (% of control),"[5]; WM 82, chlorsulfuron 100 mg/l-l",11.1 % of control
same,uninhibited ALS activity (% of control),"[5]; WM 82, chlorsulfuron 200 mg/l-l",8.5 % of control
same,leaf formation,[6],allow unifoliolate (but not trifoliolate) formation
same,leaf and root development,wild type soybeans,consistently stunt or inhibit leaf and root development
"COC(=O)c1cccnc1S(=O)(=O)NC(=O)Nc1nc(OC)cc(OC)n1 [Compound 8, Methyl 2-[[[[(4,6-dimethoxy-2-pyrimidinyl)amino]carbonyl]amino]sulfonyl]-3-pyridinecarboxylate]",uninhibited ALS activity as % of control,ALS of W20,10.7 % of control
same,uninhibited ALS activity as % of control,ALS of W23-10,7.9 % of control
same,uninhibited ALS activity as % of control,ALS of W23-11,3.8 % of control
same,uninhibited ALS activity as % of control,ALS of W4-4,37.6 % of control
same,uninhibited ALS activity as % of control,ALS of W4-5,7.1 % of control
same,uninhibited ALS activity as % of control,ALS of W4-6,4.0 % of control
same,uninhibited ALS activity as % of control,ALS of W6-1,8.5 % of control
same,uninhibited ALS activity as % of control,ALS of W6-2,9.7 % of control
same,uninhibited ALS activity as % of control,ALS of W6-4,10.5 % of control
same,uninhibited ALS activity as % of control,ALS of Williams,-0.3 % of control
same,seedling development,W20 seedlings,would not develop true leaves
